This note sets out measurements from ChEMBL document CHEMBL2151032, “Structural and enzymatic analyses reveal the binding mode of a novel series of Francisella tularensis enoyl reductase (FabI) inhibitors” (J Med Chem, 2012).

The target of this assay is T1, Enoyl-[acyl-carrier-protein] reductase [NADH] (Francisella tularensis subsp. tularensis (strain SCHU S4 / Schu 4), UniProt Q5NGQ3).
T1 sequence (Q5NGQ3 whole entry): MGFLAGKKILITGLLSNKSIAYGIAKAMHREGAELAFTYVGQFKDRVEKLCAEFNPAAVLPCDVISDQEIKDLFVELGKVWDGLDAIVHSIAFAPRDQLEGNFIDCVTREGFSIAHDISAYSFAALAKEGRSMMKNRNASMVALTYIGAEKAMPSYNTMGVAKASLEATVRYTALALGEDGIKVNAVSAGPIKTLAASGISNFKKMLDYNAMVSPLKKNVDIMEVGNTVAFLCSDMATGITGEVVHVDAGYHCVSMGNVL

`Cc1cc2ncn(Cc3ccc(Cl)c(Cl)c3)c2cc1C`: the Ki (as a rule, the equilibrium dissociation constant of an inhibitor or competing ligand from its target) stood at 360 nM.
